Laboratory results taken from US20170008928A1, “NOVEL PEPTIDES AND PEPTIDE DERIVATIVES AND USES THEREOF” (Novo Nordisk A/S, priority 2015, published 2017).
Like-named read-outs stand apart in the source and are kept apart here. Starred links: 1 amine or outer side, 2 acyl side, 3 side chain; linkers in the order of their positions; H or OH if unused. Non-standard residues stand in square brackets, D forms with d. Residues, ends and D or L forms follow the SMILES beside them. *: point of attachment. Phe(4-CH2SO3H) = N[C@@H](Cc1ccc(CS(=O)(=O)O)cc1)C(=O)O; C18 diacid = O=C(O)CCCCCCCCCCCCCCCCC(=O)*; γGlu = O=C(O)[C@H](CCC(=O)[*:2])N[*:1]; NMeF = CN[C@@H](Cc1ccccc1)C(=O)O; dNMeD = CN[C@H](CC(=O)O)C(=O)O; Nle = CCCC[C@H](N)C(=O)O; AEEA = NCCOCCOCC(=O)O

Experiment: Plasma exposure after the last dose in DIO mini-pigs
Type: in vivo, Göttingen mini-pigs
Settings: for AUC(0-t): Göttingen, minipig, plasma, sc, read-out: AUCexposure (0-24 h) after last dose
Procedure: The CCK derivative was dissolved in the following buffer: 8 mM phosphate, 184 mM propylene glycol, 58 mM phenol, pH 7.4 concentrations ranging from 2000-10000 nmol/mL corresponding to dose volumes ranging from 0.00075-0.001 mL/kg. Liraglutide was dissolved in 8 mM phosphate, 184 mM propylenglycol, 58 mM phenol, pH 8.15 (1600 nmol/mL), dose volume was 0.001 mL/kg and this formulation also served as a vehicle for all 3 treatment groups. Animals were dosed subcutaneously once daily with vehicle, CCK derivative, liraglutide, or liraglutide in combination with the CCK derivative (given as two separate injections in each side of the neck). After the last dose blood samples were obtained in EDTA coated tubes at selected time points for up to 480 hours after dosing. Blood was sampled through central-venous catheters implanted under general anaesthesia after 11 weeks of treatment.
The resulting plasma was pipetted into Micronic tubes on dry ice, and kept at −20° C. until analysed for plasma exposure of liraglutide and the CCK derivative. Plasma content of the CCK derivative was measured using LC-MS method II, as described in Example 93. Plasma content of liraglutide was measured using LOCI (Luminescence Oxygen Channeling Immunoasssay). LOCI is generally described for the determination of insulin by Poulsen and Jensen in Journal of Biomolecular Screening 2007, vol. 12, p. 240-247. The donor beads were coated with streptavidin, while acceptor beads were conjugated with a monoclonal antibody recognising a C-terminal epitope of the peptide. Another monoclonal antibody, specific for the N-terminus, was biotinylated. The three reactants were combined with the analyte and formed a two-sited immuno-complex. Illumination of the complex released singlet oxygen atoms from the donor beads, which were channelled into the acceptor beads and triggered chemiluminescence which was measured in an Envision plate reader. The amount of light was proportional to the concentration of the compound.

CCCC[C@H](NC(=O)[C@H](Cc1ccc(CS(=O)(=O)O)cc1)NC(=O)[C@H](CC(=O)O)NC(=O)COCCOCCNC(=O)COCCOCCNC(=O)CC[C@H](NC(=O)CCCCCCCCCCCCCCCCC(=O)O)C(=O)O)C(=O)NCC(=O)N[C@@H](Cc1c[nH]c2ccccc12)C(=O)N[C@@H](CCCC)C(=O)N(C)[C@H](CC(=O)O)C(=O)N(C)[C@@H](Cc1ccccc1)C(N)=O [Example 3, 2-[2-[2-[[2-[2-[2-[[(4S)-4-Carboxy-4-(17-carboxyheptadecanoylamino)butanoyl]amino]ethoxy]ethoxy]acetyl]amino]ethoxy]ethoxy]acetyl-Asp-Phe(4-sulfomethyl)-Nle-Gly-Trp-Nle-DMeAsp-MePhe-amide] ({C18 diacid-γGlu-AEEA-AEEA}-D[Phe(4-CH2SO3H)][Nle]GW[Nle][dNMeD][NMeF]-NH2)
AUC(0-t) (CCK derivative high dose group (10 nmol/kg)): 27.1 µM·h | AUC(0-t) (CCK derivative low dose group): 4.2 µM·h | AUCexposure (0-24 h) after last dose, CCK derivative (combination group, CCK derivative […] on top of liraglutide): derivative: 3332000 pM*h
